Measured values from US12102685B2, “Immodulator peptides covalently modified with small molecules” (priority 2020, dated 2024).
Marks after values point to notes of the source that are not given here. Peptide text beside a SMILES is read from it.

What was measured:
[1] = test system: THP1-Dual monocytes; assay: Succinic acid in THP1-Dual supernatant (x4A); format: cell-based
Description: Immune modulation functions of immodulator peptides were measured using the monocyte reporter cell line THP1-Dual (Invivogen, San Diego, CA), which provides convenient readouts for STING and NF-kappa-B pathways. Optionally, succinic acid, cytokine and chemokine production were also measured. THP1-Dual cell line was obtained from Invivogen. Cells were grown in a T-75 flask in RPMI Medium containing 20% fetal bovine serum, blasticidin ([…]), zeocin ([…]) and penicillin-streptomycin at 37° C. in a humidified, 5% CO2 incubator. Cells ([…], 8,000 cells/well) were plated in a 96-well plate and incubated overnight at 37 °C in a humidified, 5% CO2 incubator. Next day, […] of compounds were added (quadruplicate wells). After 24 hour incubation with the compound, supernatants were harvested and stored at 4° C. prior to assay.
STING activity using reagents QuantiBlu and QuantiLuc respectively, according to the manufacturer's recommendations (Invivogen, San Diego, CA). Succinic acid was measured by using a kit from Megazyme Inc (Cambridge, MA). Control value of activity was set to 100 in each assay. […] PAM3C=25 ng/ml PAM3CSK4 (TLR1/2 inducer); Poly(I:C)=10 ug/ml (TLR3 inducer); PAM2C=25 ng/ml PAM2CSK4 (TLR2/6 inducer); KIN14=4 uM KIN-1400 (RIG-I inducer); cytB=1 uM cytosporone B (Nur77 inducer); C-178=1 uM STING inhibitor; NFkBi=50 ug/ml NFkB inhibitor peptide; SB2021=10 uM p38MAPK inhibitor; *p<0.05, **p<0.01 vs IM3 control; #p<0.01 vs “no inducer” control; SUCC=succinic acid; nd=not done; Peptide was added to cells at 400 nM.
Peptides were added to cells at 400 nM. […]

[2] = test system: genes associated with oxidative stress in dorsal root ganglia; assay: qRT-PCR of dorsal root ganglia 14 days after burn; format: in vivo, Sprague Dawley rats; details: DRG 14 days after burn, sham = 1
From the text: Survivors of severe burns suffer lifetime neuroinflammatory consequences manifested by higher incidence of major depression and neurodegenerative disease. […] Nephrilin's mechanism of action appears to involve protection from excessive oxidative stress. Using quantitative reverse transcriptase polymerase chain reaction (qRT-PCR) amplification of transcripts in total RNA extracted from dorsal root ganglia (DRG) of male rats 14 days after exposure to thermal insult, we query the relative levels of expression of 34 genes believed to be associated with oxidative stress biology in the CNS. […] This subset analysis of DRG from a previously published study (n=3 per group) is associated with the following effects in the study (Table x7A):
In this study, using quantitative reverse transcriptase polymerase chain reaction (qRT-PCR) amplification of transcripts in total RNA extracted from dorsal root ganglia of male rats 14 days after exposure to thermal insult, the relative levels of expression of 34 genes believed to be associated with oxidative stress biology in the CNS were queried, with an emphasis on astrogliosis, immunosuppression and mitochondrial homeostasis. The 34 genes studied were selected based on their known implication in the above processes, as described in the scientific literature. Dorsal root ganglia (DRG) were dissected from male adult Sprague Dawley rats (300 gm, Charles River Laboratories, Wilmington, MA, USA), three randomly selected animals in each treatment group were used (Group 1:sham; Group 2: burn+vehicle; Group 3: burn+IM3N1) and total RNA was extracted from each pool using the Rneasy Midi Kit (Qiagen, Germantown, MD). Yield was ˜30 ug RNA per pool and A260/A280 ratios were between 1.87-2.04 in all cases. The high quality of each RNA prep was further confirmed by electrophoresis (using Eukaryote Total RNA Nano). For quantitative reverse transcriptase polymerase chain reaction (qRT-PCR) RNAs were diluted in RNase/DNase free water and aliquoted into wells in triplicate. Approximately 100 ng of RNA was used per well. A one step qPCR method was performed using Luna Universal One-Step RT-qPCR kit (New England Biolabs, Ipswich, MA) containing reverse transcriptase enzyme mix. Primer pairs for each gene were synthesized for the SYBR assay. The following standard qPCR cycling conditions were used: 55C for 10′ (for RT), 95C for 1′ followed by 40 cycles at 95C for 10 s. 58C for 30 s. Background was set at 3-10 cycles and the threshold was set at 0.02 for all runs. Ct values were collected and analyzed using the “delta-delta Ct” method. Transcript data for each gene are shown relative to GAPDH, a house-keeping gene. Sham group value was set to 1. Gene groups: [A] astrocyte activation; [B] MDSC-mediated immunosuppression; [C] Mitochondrial homeostasis; [D] Downstream effects of oxidative stress;

[3] = test system: rat scald model; assay: Rat scald model, study effects (Table x7A); format: in vivo; details: burn + IM3N1 4 mg/kg sc once daily for seven days; n=3

## N=C(N)NCCC[C@H](NC(=O)CNC(=O)[C@H](CCCCN)NC(=O)[C@H](CO)NC(=O)[C@@H]1CCCN1C(=O)[C@H](CCCNC(=N)N)NC(=O)[C@H](CS)NC(=O)[C@H](CCC(N)=O)NC(=O)[C@H](CCCCN)NC(=O)[C@H](CCCCN)NC(=O)[C@H](CCCCN)NC(=O)[C@H](Cc1ccc(O)cc1)NC(=O)[C@H](Cc1ccccc1)NC(=O)CNC(=O)[C@H](CCCCN)NC(=O)[C@@H](N)CCCCN)C(=O)N[C@@H](CCCCN)C(=O)N[C@@H](CCCNC(=N)N)C(=O)NCC(=O)N[C@@H](Cc1ccccc1)C(=O)N[C@@H](CS)C(=O)N[C@@H](Cc1c[nH]c2ccccc12)C(=O)O [IM3] (H-KKGFYKKKQCRPSKGRKRGFCW-OH; N-terminus and C-terminus assumed)
[1]; peptide 400 nM + KIN1400 (= 100)
  SUCC: 100
[1]; peptide 400 nM + KIN1400 + C-178 1 uM
  SUCC: 103.2
[1]; peptide 400 nM + KIN1400 + NFkBi 50 ug/ml
  SUCC: 99.2
[1]; peptide 400 nM + KIN1400 + SB2021 10 uM
  SUCC: 131.6*
[1]; peptide 400 nM + KIN1400 + cytB 1 uM
  SUCC: 96.1
[1]; peptide 400 nM + PAM2C (= 100)
  SUCC: 100
[1]; peptide 400 nM + PAM2C + C-178 1 uM
  SUCC: 96.1
[1]; peptide 400 nM + PAM2C + NFkBi 50 ug/ml
  SUCC: 100.1
[1]; peptide 400 nM + PAM2C + SB2021 10 uM
  SUCC: 93.4
[1]; peptide 400 nM + PAM2C + cytB 1 uM
  SUCC: 85.1*
[1]; peptide 400 nM + PAM3C
  SUCC: 100
[1]; peptide 400 nM + PAM3C + C-178 1 uM
  SUCC: 95.3
[1]; peptide 400 nM + PAM3C + NFkBi 50 ug/ml
  SUCC: 101.5
[1]; peptide 400 nM + PAM3C + SB2021 10 uM
  SUCC: 95.8
[1]; peptide 400 nM + PAM3C + cytB 1 uM
  SUCC: 95.4

## RGVTEDYLRLETLVQKVVSKGFYKKKQCRPSKGRKRGFCW [IM3N1]
[2]; [A] astrocyte activation, IM3N1 4 mg/kg sc 7 days
  GFAP transcript relative to GAPDH: 2.40
[2]; [A]
  AQP4 transcript relative to GAPDH: 0.59
  CTGF transcript relative to GAPDH: 1.61
  GALANIN transcript relative to GAPDH: 18.50
  NPY transcript relative to GAPDH: 29.50
  Pi16 transcript relative to GAPDH: 2.40
  S100A9 transcript relative to GAPDH: 5.01
[2]; [B] MDSC-mediated immunosuppression
  SLC7A11 transcript relative to GAPDH: 4.78
[2]; [B]
  ARG1 transcript relative to GAPDH: 3.09
  CCL2 transcript relative to GAPDH: 3.17
  CD63 transcript relative to GAPDH: 1.88
  NRF2 transcript relative to GAPDH: 1.29
[2]; [C] Mitochondrial homeostasis
  TFAM transcript relative to GAPDH: 1.14
[2]; [C]
  ACMSD transcript relative to GAPDH: 0.97
  BOK transcript relative to GAPDH: 1.10
  FIS1 transcript relative to GAPDH: 0.90
  GLUL transcript relative to GAPDH: 1.53
  HCRTR1 transcript relative to GAPDH: 1.42
  MFN2 transcript relative to GAPDH: 1.48
  NOX2 transcript relative to GAPDH: 2.07
  NOX4 transcript relative to GAPDH: 6.57
  OXR1 transcript relative to GAPDH: 1.04
  PINK1 transcript relative to GAPDH: 1.35
  PPARGC1A transcript relative to GAPDH: 1.00
  RAC1 transcript relative to GAPDH: 1.00
  SHC1 transcript relative to GAPDH: 2.34
  SLC23A2 transcript relative to GAPDH: 1.47
  STEAP4 transcript relative to GAPDH: 1.77
  UCP2 transcript relative to GAPDH: 1.22
[2]; [D] Downstream effects of oxidative stress
  PLSCR1 transcript relative to GAPDH: 2.30
[2]; [D]
  BACE1 transcript relative to GAPDH: 1.42
  SLC12A2 transcript relative to GAPDH: 1.59
  SLC12A5 transcript relative to GAPDH: 1.38
[3]
  Glycemic Control (GTT AUC): 69.0 ± 18.1 mg·dL·h
  Kidney Function (eGFR, calculated): 1.29 ± 0.32
  Lean Body Mass (DEXA): 328.5 ± 5.1
  Urinary 8-isoprostate: 4.53 ± 1.21 ng/pg cystatin
